Biological target: Cytochrome P450 3A4 (Homo sapiens, UniProt P08684)
Sequence (P08684 whole entry): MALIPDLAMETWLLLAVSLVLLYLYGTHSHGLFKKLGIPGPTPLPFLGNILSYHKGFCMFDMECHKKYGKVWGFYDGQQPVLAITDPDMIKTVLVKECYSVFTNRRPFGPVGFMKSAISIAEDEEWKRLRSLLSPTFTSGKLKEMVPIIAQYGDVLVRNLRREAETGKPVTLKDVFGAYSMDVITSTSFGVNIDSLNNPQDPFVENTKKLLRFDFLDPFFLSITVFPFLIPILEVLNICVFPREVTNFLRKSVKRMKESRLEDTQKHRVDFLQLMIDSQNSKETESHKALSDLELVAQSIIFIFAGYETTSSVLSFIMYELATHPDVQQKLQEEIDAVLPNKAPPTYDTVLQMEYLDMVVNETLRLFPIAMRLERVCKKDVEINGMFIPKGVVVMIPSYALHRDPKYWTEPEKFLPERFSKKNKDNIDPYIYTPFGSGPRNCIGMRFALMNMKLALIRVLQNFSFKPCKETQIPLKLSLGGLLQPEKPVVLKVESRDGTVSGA

For `OCc1ncc2n1-c1ccc(Cl)cc1C(c1ccccc1F)=NC2` [ALPHA-HYDROXY-MIDAZOLAM], the IC50 was 10 µM.

Work on `OC1N=C(c2ccccc2F)c2cc(Cl)ccc2-n2cncc21` (configuration not stated) yielded an IC50 of 10 µM.

From ChEMBL document CHEMBL1136306, “Design and synthesis of a new fluorescent probe for cytochrome P450 3A4 (CYP 3A4)” (Bioorg Med Chem Lett, 2003)
